Assay results published in PubChem BioAssay AID248 (DTP/NCI, 2004).
Several values for one entry are separate records, joined by “and”; a condition that tells them apart may be missing. Equal entries are not always repeated. Inconclusive results and toxic doses are left out. No stated cut-off is given here; in the data, active means T/C of 150% or more; inactive means T/C below 125%.

System: L1210 leukemia ip in BDF1 mice, survival T/C
Assay: NCI In Vivo Anticancer Drug Screen. Data for tumor model L1210 Leukemia (intraperitoneal) in B6D2F1 (BDF1) mice
Settings: endpoint: mean survival time, higher = longer survival
Summary of the method: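 Value reflects the ratio of survival in compound-treated mice to survival in vehicle-treated controls, with both groups carrying the same transplanted tumor.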

[1] = dose: 100.0 mg/kg/injection, schedule: Q01DX009 (ip), vehicle: saline with Tween-80
[2] = dose: 200.0 mg/kg/injection, schedule: Q01DX009 (ip), vehicle: saline with Tween-80
[3] = dose: 400.0 mg/kg/injection, schedule: Q01DX009 (ip), vehicle: saline with Tween-80
[4] = dose: 75.0 mg/kg/injection, schedule: Q01DX001 (ip), vehicle: other
[5] = dose: 150.0 mg/kg/injection, schedule: Q01DX001 (ip), vehicle: other
[6] = dose: 300.0 mg/kg/injection, schedule: Q01DX001 (ip), vehicle: other
[7] = dose: 100.0 mg/kg/injection, schedule: Q04DX003 (ip), vehicle: saline with Tween-80
[8] = dose: 200.0 mg/kg/injection, schedule: Q04DX003 (ip), vehicle: saline with Tween-80
[9] = dose: 400.0 mg/kg/injection, schedule: Q04DX003 (ip), vehicle: saline with Tween-80
[10] = dose: 100.0 mg/kg/injection, schedule: Q01DX009 (ip), vehicle: Klucel (hydroxypropylcellulose) (HPC)
[11] = dose: 100.0 mg/kg/injection, schedule: Q01DX001 (ip), vehicle: saline
[12] = dose: 200.0 mg/kg/injection, schedule: Q01DX001 (ip), vehicle: saline
[13] = dose: 400.0 mg/kg/injection, schedule: Q01DX001 (ip), vehicle: saline
[14] = dose: 10.0 mg/kg/injection, schedule: Q01DX001 (ip), vehicle: saline

Measured: T/C

c1ccc(Sc2cccc3ccccc23)cc1
inactive: [1] 109 % of control | [2] 103 % of control | [3] 103 % of control

O=Cc1ccc([N+](=O)[O-])cc1Cl
inactive: [4] 111 % of control | [5] 94 % of control | [6] 97 % of control

Brc1c(N=Cc2ccccc2)ccc2ccccc12
inactive: [1] 94 % of control | [7] 102 % of control | [2] 87 % of control | [8] 102 % of control | [3] 89 % of control | [9] 89 % of control

Cc1ccc(CO)cc1C
inactive: dose: 50.0 mg/kg/injection, schedule: Q04DX003 (ip), vehicle: saline with Tween-80 95 % of control | [7] 104 % of control | [8] 93 % of control

CC(=O)Nc1ccc(C(C)C)cc1
inactive: [10] 103 % of control | dose: 200.0 mg/kg/injection, schedule: Q01DX009 (ip), vehicle: Klucel (hydroxypropylcellulose) (HPC) 95 % of control | dose: 400.0 mg/kg/injection, schedule: Q01DX009 (ip), vehicle: Klucel (hydroxypropylcellulose) (HPC) 94 % of control

CC1(C)CCCC2(C)C(C(=O)O)C3CCC45OC3(CC12)OC(=O)C4C1(C)CCCC(C)(C)C1CC5=O (configuration not stated)
inactive: [11] 101 % of control | [12] 107 % of control | [13] 109 % of control

N=C(N)SCc1ccc(Br)cc1
inactive: [11] 104 % of control | [12] 112 % of control

O=C(CS(=O)(=O)C/C(=N\Nc1ccc([N+](=O)[O-])cc1)c1ccccc1)c1ccccc1
inactive: dose: 100.0 mg/kg/injection, schedule: Q04DX003 (ip), vehicle: saline 101 % of control | dose: 200.0 mg/kg/injection, schedule: Q04DX003 (ip), vehicle: saline 113 % of control | dose: 400.0 mg/kg/injection, schedule: Q04DX003 (ip), vehicle: saline 104 % of control

O=c1ccnc(SCc2ccccc2)[nH]1
inactive: dose: 100.0 mg/kg/injection, schedule: Q01DX Z (ip), vehicle: methylcellulose (MC) 95 % of control | dose: 200.0 mg/kg/injection, schedule: Q01DX Z (ip), vehicle: methylcellulose (MC) 97 % of control

O=Cc1c2ccccc2cc2ccccc12
inactive: dose: 9.5 mg/kg/injection, schedule: Q01DX015 (ip), vehicle: saline 96 % of control | dose: 9.5 mg/kg/injection, schedule: Q## X015 (ip), vehicle: saline 94 % of control | dose: 9.7 mg/kg/injection, schedule: Q01DX015 (ip), vehicle: other 97 % of control | dose: 16.2 mg/kg/injection, schedule: Q01DX015 (ip), vehicle: other 107 % of control | dose: 16.2 mg/kg/injection, schedule: Q## X015 (ip), vehicle: saline 94 % of control | dose: 27.0 mg/kg/injection, schedule: Q01DX015 (ip), vehicle: other 104 % of control | dose: 27.0 mg/kg/injection, schedule: Q## X015 (ip), vehicle: saline 96 % of control | dose: 45.0 mg/kg/injection, schedule: Q01DX015 (ip), vehicle: other 91 % of control | dose: 45.0 mg/kg/injection, schedule: Q01DX015 (ip), vehicle: saline 96 % of control and 109 % of control | dose: 45.0 mg/kg/injection, schedule: Q## X015 (ip), vehicle: saline 94 % of control | dose: 50.0 mg/kg/injection, schedule: Q01DX001 (ip), vehicle: saline 95 % of control and 100 % of control and 103 % of control | [11] 97 % of control and 100 % of control and 103 % of control | [12] 101 % of control | [13] 97 % of control and 101 % of control and 114 % of control | dose: 800.0 mg/kg/injection, schedule: Q01DX001 (ip), vehicle: saline 100 % of control

CC(=O)c1ccccc1N1CCCCC1
inactive: dose: 100.0 mg/kg/injection, schedule: Q04DX002 (ip), vehicle: saline 100 % of control | dose: 200.0 mg/kg/injection, schedule: Q04DX002 (ip), vehicle: saline 89 % of control

OC1c2ccccc2-c2c(F)c(F)c(F)c(F)c21 (configuration not stated)
inactive: dose: 50.0 mg/kg/injection, schedule: Q01DX001 (ip), vehicle: carboxymethylcellulose (CMC) 96 % of control | dose: 100.0 mg/kg/injection, schedule: Q01DX001 (ip), vehicle: carboxymethylcellulose (CMC) 97 % of control | dose: 200.0 mg/kg/injection, schedule: Q01DX001 (ip), vehicle: carboxymethylcellulose (CMC) 94 % of control | dose: 400.0 mg/kg/injection, schedule: Q01DX001 (ip), vehicle: carboxymethylcellulose (CMC) 111 % of control

OCC1OC(n2c(N3CCOCC3)nc3ccccc32)C(O)C1O (configuration not stated)
inactive: [11] 115 % of control | [12] 97 % of control | [13] 96 % of control

O=NN1C(=O)C2CC3CC(C2)CC1C3
inactive: dose: 3.12 mg/kg/injection, schedule: Q01DX009 (ip), vehicle: saline with Tween-80 91 % of control | dose: 6.25 mg/kg/injection, schedule: Q01DX009 (ip), vehicle: saline with Tween-80 107 % of control | dose: 12.5 mg/kg/injection, schedule: Q01DX009 (ip), vehicle: saline with Tween-80 96 % of control

CC(=O)[C@@]1(O)CC[C@H]2[C@@H]3C=C(C)C4=CC(=O)C=C[C@]4(C)[C@@]3(F)[C@@H](O)C[C@@]21C
inactive: dose: 50.0 mg/kg/injection, schedule: Q01DX001 (sc), vehicle: steriod suspending solution 96 % of control | dose: 100.0 mg/kg/injection, schedule: Q01DX001 (sc), vehicle: steriod suspending solution 102 % of control | dose: 200.0 mg/kg/injection, schedule: Q01DX001 (sc), vehicle: steriod suspending solution 105 % of control | dose: 400.0 mg/kg/injection, schedule: Q01DX001 (sc), vehicle: steriod suspending solution 118 % of control

O=C(NCCF)NC1C=CCCC1 (configuration not stated)
inactive: [4] 100 % of control | [5] 95 % of control | [6] 94 % of control

CC(C)/C=N\O
inactive: [7] 104 % of control | [8] 123 % of control | [9] 109 % of control

c1ccc(C[N+]23CCN(CC2)CC3)cc1
inactive: dose: 12.5 mg/kg/injection, schedule: Q01DX009 (ip), vehicle: saline 119 % of control | dose: 25.0 mg/kg/injection, schedule: Q01DX009 (ip), vehicle: saline 109 % of control | dose: 50.0 mg/kg/injection, schedule: Q01DX009 (ip), vehicle: saline 108 % of control

C=CCOC(=O)c1ccco1
inactive: dose: 25.0 mg/kg/injection, schedule: Q01DX009 (ip), vehicle: Klucel (hydroxypropylcellulose) (HPC) 98 % of control | dose: 50.0 mg/kg/injection, schedule: Q01DX009 (ip), vehicle: Klucel (hydroxypropylcellulose) (HPC) 106 % of control | [10] 94 % of control and 96 % of control

Cc1ccc[n+]2c1ccc1c3ccccc3ccc12
inactive: [14] 106 % of control

Cc1ccc(NC(=O)OCCN(CCOC(=O)Nc2ccc(C)cc2)c2cccc(C)c2)cc1
inactive: [11] 94 % of control | [12] 90 % of control | [13] 94 % of control

Cc1cc(Cl)ccc1NC(C)(C)C
inactive: dose: 75.0 mg/kg/injection, schedule: Q04DX002 (ip), vehicle: Klucel (hydroxypropylcellulose) (HPC) 104 % of control | dose: 150.0 mg/kg/injection, schedule: Q04DX002 (ip), vehicle: Klucel (hydroxypropylcellulose) (HPC) 108 % of control | dose: 300.0 mg/kg/injection, schedule: Q04DX002 (ip), vehicle: Klucel (hydroxypropylcellulose) (HPC) 104 % of control

C[As](C)N
inactive: [14] 102 % of control | dose: 15.0 mg/kg/injection, schedule: Q01DX001 (ip), vehicle: saline 93 % of control | dose: 20.0 mg/kg/injection, schedule: Q01DX001 (ip), vehicle: saline 120 % of control | dose: 30.0 mg/kg/injection, schedule: Q01DX001 (ip), vehicle: saline 91 % of control | dose: 60.0 mg/kg/injection, schedule: Q01DX001 (ip), vehicle: saline 90 % of control

CCC1CN2CCc3cc(OC)c(OC)cc3C2CC1CC1NCCc2cc(OC)c(OC)cc21 (configuration not stated)
inactive: dose: 2.0 mg/kg/injection, schedule: Q04DX003 (ip), vehicle: water 93 % of control | dose: 4.0 mg/kg/injection, schedule: Q04DX003 (ip), vehicle: water 98 % of control | dose: 8.0 mg/kg/injection, schedule: Q04DX003 (ip), vehicle: water 94 % of control | dose: 16.0 mg/kg/injection, schedule: Q04DX003 (ip), vehicle: water 104 % of control | dose: 32.0 mg/kg/injection, schedule: Q04DX003 (ip), vehicle: water 102 % of control | dose: 64.0 mg/kg/injection, schedule: Q04DX003 (ip), vehicle: water 100 % of control

O=C(O)C1C2c3ccccc3C(C1C(=O)O)[n+]1ccccc12 (configuration not stated)
inactive: dose: 100.0 mg/kg/injection, schedule: Q01DX009 (ip), vehicle: saline 95 % of control | dose: 200.0 mg/kg/injection, schedule: Q01DX009 (ip), vehicle: saline 103 % of control | dose: 400.0 mg/kg/injection, schedule: Q01DX009 (ip), vehicle: saline 94 % of control
